Assay results as given in US9676714B2, “Sulfonylindole derivatives and method for preparing the same” (Daewoong Pharmaceutical Co., Ltd., priority 2013, dated 2017).
Structures can show the parent of a compound that is named as a salt.

Target: T1, proton pump (H+/K+-ATPase) (Sus scrofa, UniProt P19156)
T1 construct: Gastric vesicles were prepared from hog stomach via centrifugal separation; from tissue; host or cells: hog stomach (gastric vesicles, method of Rabon et al. 1988)
Experiment: Measurement of inhibitory effects on proton pump (H+/K+-ATPase) activities
Assay type: biochemical
Conditions: hog gastric vesicles, K+-specific H+/K+-ATPase activity, Tris-HCl buffer pH 7.4, 37° C. for 40 minutes, malachite green Pi readout
Outline: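 Hog gastric vesicles in 60 mmol/l Tris-HCl pH 7.4 with 0.5% DMSO were treated with compounds at room temperature; reaction was started with 10 μl of 10 mmol/l ATP stock. Released Pi was read at 570 nm, K+-specific activity taken as the ±K+ difference. IC50 from 4-parameter logistic fit.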

T1 sequence (P19156 whole entry): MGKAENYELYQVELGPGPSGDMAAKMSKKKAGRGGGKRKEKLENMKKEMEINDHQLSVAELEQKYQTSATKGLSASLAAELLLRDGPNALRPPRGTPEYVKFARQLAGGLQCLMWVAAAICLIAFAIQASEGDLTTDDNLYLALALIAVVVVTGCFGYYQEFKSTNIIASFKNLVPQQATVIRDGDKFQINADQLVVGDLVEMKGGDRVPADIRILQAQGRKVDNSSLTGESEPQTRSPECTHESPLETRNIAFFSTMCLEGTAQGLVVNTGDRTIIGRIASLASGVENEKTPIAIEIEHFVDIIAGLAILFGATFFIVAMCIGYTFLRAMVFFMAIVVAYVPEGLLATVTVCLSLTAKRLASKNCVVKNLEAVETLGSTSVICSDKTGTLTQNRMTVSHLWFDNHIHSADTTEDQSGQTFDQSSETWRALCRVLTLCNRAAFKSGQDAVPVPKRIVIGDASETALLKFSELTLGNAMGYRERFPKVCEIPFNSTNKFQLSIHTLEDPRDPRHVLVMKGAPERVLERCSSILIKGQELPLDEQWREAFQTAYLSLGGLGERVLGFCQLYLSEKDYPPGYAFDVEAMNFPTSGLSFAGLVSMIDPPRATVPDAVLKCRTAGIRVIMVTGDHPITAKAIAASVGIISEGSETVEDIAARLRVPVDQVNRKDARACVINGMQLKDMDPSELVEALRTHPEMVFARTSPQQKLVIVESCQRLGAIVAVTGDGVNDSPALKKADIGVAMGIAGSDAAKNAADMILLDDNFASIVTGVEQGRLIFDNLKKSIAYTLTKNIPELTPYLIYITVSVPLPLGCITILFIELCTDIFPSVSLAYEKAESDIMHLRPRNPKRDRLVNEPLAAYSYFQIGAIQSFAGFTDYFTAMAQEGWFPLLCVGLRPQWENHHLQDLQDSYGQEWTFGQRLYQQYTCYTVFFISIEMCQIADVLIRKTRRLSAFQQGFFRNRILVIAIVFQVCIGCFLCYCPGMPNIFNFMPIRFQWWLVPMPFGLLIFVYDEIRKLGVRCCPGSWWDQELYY
T1 sequence (P18434 whole entry partner): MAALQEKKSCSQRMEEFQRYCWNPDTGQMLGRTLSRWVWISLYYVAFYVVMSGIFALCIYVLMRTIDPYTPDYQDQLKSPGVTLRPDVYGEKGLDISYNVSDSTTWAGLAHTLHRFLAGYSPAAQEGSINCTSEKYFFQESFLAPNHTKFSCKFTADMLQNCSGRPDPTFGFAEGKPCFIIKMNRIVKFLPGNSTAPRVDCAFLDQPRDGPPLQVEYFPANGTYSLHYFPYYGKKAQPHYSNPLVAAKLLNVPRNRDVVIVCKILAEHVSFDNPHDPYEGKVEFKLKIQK

Row | IC50 [nM] | SMILES
1 | 1970 | CNCc1cn(S(=O)(=O)c2cccnc2)c2cc(Cc3ccc(OC(F)(F)F)cc3C)ccc12 [Example 278, N-methyl-1-(6-(2-methyl-4-(trifluoromethoxy)benzyl)-1-(pyridin-3-ylsulfonyl)-1H-indol-3-yl)methanamine hydrochloride]
2 | 2190 | CNCc1cn(S(=O)(=O)c2cccnc2)c2cc(Cc3ccc(OC(F)(F)F)cc3F)ccc12 [Example 279, 1-(6-(2-fluoro-4-(trifluoromethoxy)benzyl)-1-(pyridin-3-ylsulfonyl)-1H-indol-3-yl)-N-methylmethanamine hydrochloride]
3 | 860 | CNCc1cn(S(=O)(=O)c2cccnc2)c2cc(Cc3ccc(OC(F)(F)F)cc3Cl)ccc12 [Example 280, 1-(6-(2-chloro-4-(trifluoromethoxy)benzyl)-1-(pyridin-3-ylsulfonyl)-1H-indol-3-yl)-N-methylmethanamine hydrochloride]
4 | 1870 | CNCc1cn(S(=O)(=O)c2cccnc2)c2cc(Cc3ccc(OC(F)(F)F)cc3OC)ccc12 [Example 281, 1-(6-(2-methoxy-4-(trifluoromethoxy)benzyl)-1-(pyridin-3-ylsulfonyl)-1H-indol-3-yl)-N-methylmethanamine hydrochloride]
5 | 2920 | CNCc1cn(S(=O)(=O)c2cccnc2)c2cc(Cc3cccnc3OC)ccc12 [Example 282, 1-(6-((2-methoxypyridin-3-yl)methyl)-1-(pyridin-3-ylsulfonyl)-1H-indol-3-yl)-N-methylmethanamine hydrochloride]
6 | 2630 | CNCc1cn(S(=O)(=O)c2cccnc2)c2cc(Cc3ccc(C)nc3F)ccc12 [Example 283, 1-(6-((2-fluoro-6-methylpyridin-3-yl)methyl)-1-(pyridin-3-ylsulfonyl)-1H-indol-3-yl)-N-methylmethanamine hydrochloride]
7 | 1010 | CNCc1cn(S(=O)(=O)c2cccnc2)c2cc(Cc3ccc(C)nc3Cl)ccc12 [Example 284, 1-(6-((2-chloro-6-methylpyridin-3-yl)methyl)-1-(pyridin-3-ylsulfonyl)-1H-indol-3-yl)-N-methylmethanamine hydrochloride]
8 | 650 | CNCc1cn(S(=O)(=O)c2cccnc2)c2cc(Cc3ccc(Cl)nc3Cl)ccc12 [Example 285, 1-(6-((2,6-dichloropyridin-3-yl)methyl)-1-(pyridin-3-ylsulfonyl)-1H-indol-3-yl)-N-methylmethanamine hydrochloride]
9 | 1670 | CNCc1cn(S(=O)(=O)c2cccc(F)c2)c2cc(Cc3ccc(C)c(F)c3F)ccc12 [Example 287, 1-(6-(2,3-difluoro-4-methylbenzyl)-1-((3-fluorophenyl)sulfonyl)-1H-indol-3-yl)-N-methylmethanamine]
10 | 1450 | CNCc1cn(S(=O)(=O)c2cccc(C(F)(F)F)c2)c2cc(Cc3ccc(C)c(F)c3F)ccc12 [Example 288, 1-(6-(2,3-difluoro-4-methylbenzyl)-1-((3-(trifluoromethyl)phenyl)sulfonyl)-1H-indol-3-yl)-N-methylmethanamine]
11 | 780 | CNCc1cn(S(=O)(=O)c2cccc(OC)c2)c2cc(Cc3ccc(C)c(F)c3F)ccc12 [Example 289, 1-(6-(2,3-difluoro-4-methylbenzyl)-1-((3-methoxyphenyl)sulfonyl)-1H-indol-3-yl)-N-methylmethanamine]
12 | 930 | CNCc1cn(S(=O)(=O)c2cccc(OC(F)F)c2)c2cc(Cc3ccc(C)c(F)c3F)ccc12 [Example 290, 1-(6-(2,3-difluoro-4-methylbenzyl)-1-((3-(difluoromethoxy)phenyl)sulfonyl)-1H-indol-3-yl)-N-methylmethanamine]
13 | 660 | CNCc1cn(S(=O)(=O)c2cccnc2)c2cc(Cc3ccc(OC)nc3Cl)ccc12 [Example 291, 1-(6-((2-chloro-6-methoxypyridin-3-yl)methyl)-1-(pyridin-3-ylsulfonyl)-1H-indol-3-yl)-N-methylmethanamine hydrochloride]
14 | 640 | CNCc1cn(S(=O)(=O)c2cccc(F)c2)c2cc(Cc3ccc(OC)nc3Cl)ccc12 [Example 292, 1-(6-((2-chloro-6-methoxypyridin-3-yl)methyl)-1-((3-fluorophenyl)sulfonyl)-1H-indol-3-yl)-N-methylmethanamine hydrochloride]
15 | 550 | CNCc1cn(S(=O)(=O)c2cccc(Cl)c2)c2cc(Cc3ccc(OC)nc3Cl)ccc12 [Example 293, 1-(6-((2-chloro-6-methoxypyridin-3-yl)methyl)-1-((3-chlorophenyl)sulfonyl)-1H-indol-3-yl)-N-methylmethanamine]
16 | 630 | CNCc1cn(S(=O)(=O)c2cccc(C(F)(F)F)c2)c2cc(Cc3ccc(OC)nc3Cl)ccc12 [Example 294, 1-(6-((2-chloro-6-methoxypyridin-3-yl)methyl)-1-((3-(trifluoromethyl)phenyl)sulfonyl)-1H-indol-3-yl)-N-methylmethanamine hydrochloride]
17 | 920 | CNCc1cn(S(=O)(=O)c2cccc(OC)c2)c2cc(Cc3ccc(OC)nc3Cl)ccc12 [Example 295, 1-(6-((2-chloro-6-methoxypyridin-3-yl)methyl)-1-((3-methoxyphenyl)sulfonyl)-1H-indol-3-yl)-N-methylmethanamine]
18 | 930 | CNCc1cn(S(=O)(=O)c2cccc(OC(F)F)c2)c2cc(Cc3ccc(OC)nc3Cl)ccc12 [Example 296, 1-(6-((2-chloro-6-methoxypyridin-3-yl)methyl)-1-((3-(difluoromethoxy)phenyl)sulfonyl)-1H-indol-3-yl)-N-methylmethanamine]
19 | 1190 | CNCc1cn(S(=O)(=O)c2cccc(OC(F)(F)F)c2)c2cc(Cc3ccc(OC)nc3Cl)ccc12 [Example 297, 1-(6-((2-chloro-6-methoxypyridin-3-yl)methyl)-1-((3-(trifluoromethoxy)phenyl)sulfonyl)-1H-indol-3-yl)-N-methylmethanamine]
20 | 3600 | CNCc1cn(S(=O)(=O)c2ccc(OC(F)F)cc2)c2cc(Cc3ccc(OC)nc3Cl)ccc12 [Example 298, 1-(6-((2-chloro-6-methoxypyridin-3-yl)methyl)-1-((4-(difluoromethoxy)phenyl)sulfonyl)-1H-indol-3-yl)-N-methylmethanamine]
21 | 270 | CNCc1cn(S(=O)(=O)c2cccc(F)c2)c2cc(Cc3ccc(C)cc3Cl)ccc12 [Example 299, 1-(6-(2-chloro-4-methylbenzyl)-1-((3-fluorophenyl)sulfonyl)-1H-indol-3-yl)-N-methylmethanamine]
22 | 1530 | CNCc1cn(S(=O)(=O)c2ccccc2F)c2cc(Cc3ccc(C)cc3Cl)ccc12 [Example 300, 1-(6-(2-chloro-4-methylbenzyl)-1-((2-fluorophenyl)sulfonyl)-1H-indol-3-yl)-N-methylmethanamine]
23 | 790 | CNCc1cn(S(=O)(=O)c2cccc(Cl)c2)c2cc(Cc3ccc(C)cc3Cl)ccc12 [Example 301, 1-(6-(2-chloro-4-methylbenzyl)-1-((3-chlorophenyl)sulfonyl)-1H-indol-3-yl)-N-methylmethanamine]
24 | 320 | CNCc1cn(S(=O)(=O)c2cccc(C(F)(F)F)c2)c2cc(Cc3ccc(C)cc3Cl)ccc12 [Example 302, 1-(6-(2-chloro-4-methylbenzyl)-1-((3-(trifluoromethyl)phenyl)sulfonyl)-1H-indol-3-yl)-N-methylmethanamine]
